The values below come from ChEMBL document CHEMBL5523669, “Sialyl LewisX glycomimetics bearing an extended anionic chain targeting E- and P- selectin binding sites” (Bioorg Med Chem, 2024).

Each structure is given as a SMILES string. Active and inactive are the calls of the source. No cut-off for these calls is given here.

Assay [1] concerns the target T1, P-selectin (Homo sapiens, UniProt P16109).
T1 sequence (P16109 whole entry): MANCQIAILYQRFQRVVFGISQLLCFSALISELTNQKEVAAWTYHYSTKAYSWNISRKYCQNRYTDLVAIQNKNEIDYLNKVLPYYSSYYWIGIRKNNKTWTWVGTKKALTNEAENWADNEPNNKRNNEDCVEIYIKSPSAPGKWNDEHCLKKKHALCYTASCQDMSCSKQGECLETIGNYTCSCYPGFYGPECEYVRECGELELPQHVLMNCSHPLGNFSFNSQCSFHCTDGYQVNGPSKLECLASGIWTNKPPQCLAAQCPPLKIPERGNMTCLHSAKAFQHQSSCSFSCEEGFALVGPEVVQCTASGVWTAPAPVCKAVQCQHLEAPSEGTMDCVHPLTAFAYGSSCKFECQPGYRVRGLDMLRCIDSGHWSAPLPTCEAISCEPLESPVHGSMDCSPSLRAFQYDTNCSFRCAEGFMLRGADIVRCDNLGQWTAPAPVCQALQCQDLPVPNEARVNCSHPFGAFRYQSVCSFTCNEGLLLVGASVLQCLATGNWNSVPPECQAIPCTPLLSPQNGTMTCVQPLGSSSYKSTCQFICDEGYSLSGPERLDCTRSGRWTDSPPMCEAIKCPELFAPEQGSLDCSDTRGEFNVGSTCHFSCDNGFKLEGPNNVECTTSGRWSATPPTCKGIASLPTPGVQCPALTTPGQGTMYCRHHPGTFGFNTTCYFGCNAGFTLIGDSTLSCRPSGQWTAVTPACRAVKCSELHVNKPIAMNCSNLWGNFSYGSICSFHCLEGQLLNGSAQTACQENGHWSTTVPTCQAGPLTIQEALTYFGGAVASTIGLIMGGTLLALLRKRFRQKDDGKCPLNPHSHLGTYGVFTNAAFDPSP
Put plainly: Antagonist activity at recombinant human P-selectin assessed as inhibition of P-selection binding to homodimer human PSGL-1-Fc interaction measured after 30 mins by surface plasmon resonance (SPR) spectroscopy. On the technique in general: SPR reads the build-up and loss of mass on a sensor chip optically.

Assay [2] addresses T2, E-selectin (Homo sapiens) (UniProt P16581).
T2 sequence (whole entry): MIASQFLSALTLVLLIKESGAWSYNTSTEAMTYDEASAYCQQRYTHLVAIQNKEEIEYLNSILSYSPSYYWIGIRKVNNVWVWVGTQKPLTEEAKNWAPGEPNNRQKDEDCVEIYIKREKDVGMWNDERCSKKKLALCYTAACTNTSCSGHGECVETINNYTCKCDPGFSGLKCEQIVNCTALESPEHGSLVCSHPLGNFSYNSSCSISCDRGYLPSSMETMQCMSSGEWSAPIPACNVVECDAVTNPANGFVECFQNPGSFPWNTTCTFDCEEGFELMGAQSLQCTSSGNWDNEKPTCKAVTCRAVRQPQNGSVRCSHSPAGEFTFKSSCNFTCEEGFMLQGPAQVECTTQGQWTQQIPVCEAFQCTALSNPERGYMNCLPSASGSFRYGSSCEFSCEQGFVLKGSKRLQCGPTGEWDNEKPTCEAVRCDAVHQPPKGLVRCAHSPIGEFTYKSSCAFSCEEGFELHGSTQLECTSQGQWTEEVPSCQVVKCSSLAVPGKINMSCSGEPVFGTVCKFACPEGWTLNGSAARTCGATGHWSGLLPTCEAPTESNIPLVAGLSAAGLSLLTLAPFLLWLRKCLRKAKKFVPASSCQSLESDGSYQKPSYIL
Put plainly: Reduction in human HL-60 cell adhesion in E-Selectin Fc coated plates at 0.1 to 500 uM measured after 1 hr incubation by Cell-selectin adhesion assay. It is filed as cell-based. The conditions noted are these: filed as antagonist, dose 0.1-500 µM.

For assay [3], the system named is HL-60. The assay can be described thus: Reduction in human HL-60 cell adhesion in E-Selectin Fc coated plates measured after 1 hr incubation by Cell-selectin adhesion assay. It is filed as cell-based. Particulars: filed as antagonist, dose 0.1-500 µM.

As for `CC(C)OC(=O)[C@H](O[C@@H]1O[C@H](CO)[C@H](OC(=O)c2ccccc2)[C@H](O[C@H](Cc2ccccc2)C(=O)O)[C@H]1OC(=O)c1ccccc1)[C@@H](O[C@@H]1O[C@@H](C)[C@@H](O)[C@@H](O)[C@@H]1O)C(=O)O[C@@H](C)CCCn1cc(CCCCC(=O)Nc2ccc(OP(=O)(O)O)cc2)nn1`, the half-inhibitory concentration (IC50) in assay [1] amounted to 290 µM. For the same molecule, in assay [2], the result was Active.

Regarding `CC(C)OC(=O)[C@H](O[C@@H]1O[C@@H](C)[C@@H](O)[C@@H](O)[C@@H]1O)[C@@H](O[C@@H]1O[C@H](CO)[C@H](O)[C@H](O[C@H](Cc2ccccc2)C(=O)O)[C@H]1OC(=O)c1ccccc1)C(=O)OC(C)C`, the IC50 in assay [1] came out at 162 µM.

Consider `CC(=O)N[C@H]1[C@H]([C@H](O)[C@H](O)CO)O[C@@](O[C@H]2[C@@H](O)[C@@H](CO)O[C@@H](O[C@@H]([C@H](O[C@@H]3O[C@@H](C)[C@@H](O)[C@@H](O)[C@@H]3O)[C@H](C=O)NC(C)=O)[C@H](O)CO)[C@@H]2O)(C(=O)O)C[C@@H]1O`, for which the Activity result in assay [3] was “Dose-Dependent Effect”. Besides, the result in assay [2] was Active.

As a reminder, the IC50 is the concentration at which inhibition is half-maximal.
